Here are results for five compounds from PubChem BioAssay (NCI).

Test systems include EKVX NSCLC; T-47D breast; HOP-92 NSCLC; M14 melanoma; SF-268 CNS; OVCAR-3 ovarian; SN12C renal; NCI-H460 lung; NCI-H226 lung; SK-MEL-5 melanoma.
Test in all cases: DTP human tumour cell line panel, 48 h

“And” between values parts separate entries of the source, which are not always exact repeats. Equal values may be shown once.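 1) Cells in 96-well plates. 2) Compound, 48 h, 5 concentrations. 3) Linear interpolation between surrounding doses. 4) Unreached endpoint = highest concentration. Abbreviation: GI50, concentration required for 50% inhibition of growth. The concentration for full growth arrest is given as TGI.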 Bounds are passed on as bounds.

Take `COc1ncc(-c2ccc3nccc(-c4ccnnc4)c3c2)cc1NS(=O)(=O)c1ccc(F)cc1F`: the GI50 with EKVX NSCLC is 0.0138 µM and 0.013 µM; in the experiment on HOP-92 NSCLC, 0.00109 µM and < 0.01 µM; in the experiment on M14 melanoma it was 0.013 µM and < 0.01 µM; with SF-268 CNS, 0.0127 µM and 0.0148 µM; with OVCAR-3 ovarian, 0.00901 µM and < 0.0109 µM; in the experiment with SN12C renal, 0.0111 µM and < 0.01 µM. Moreover, the GI50 in the experiment with NCI-H460 lung is 0.00406 µM and < 0.01 µM; in the experiment on NCI-H226 lung, 0.0269 µM and 0.0208 µM; with SK-MEL-5 melanoma it was 0.0237 µM and 0.0154 µM. For the same compound, the TGI in the experiment on EKVX NSCLC is 1.23 µM and 1.73 µM; with T-47D breast it was 0.00428 µM; in the experiment on HOP-92 NSCLC, 0.00872 µM and < 0.01 µM; in the experiment with M14 melanoma, 0.794 µM and 0.485 µM; in the experiment on SF-268 CNS, > 10 µM and 9.23 µM; with OVCAR-3 ovarian, 0.763 µM and 0.376 µM. Besides, the TGI in the experiment on SN12C renal is above 100 µM; with NCI-H460 lung, > 10 µM and 15.3 µM; in the experiment on NCI-H226 lung it was > 3.68 µM and 2.91 µM; with SK-MEL-5 melanoma, 0.141 µM and 0.0966 µM.

As to `CC[C@H](Nc1nc(NCc2cnc(C)cc2C)c2ncn(C(C)C)c2n1)[C@@H](C)O`, the GI50 is 0.319 µM with EKVX NSCLC; 0.402 µM in the experiment on T-47D breast; 0.279 µM in the experiment with HOP-92 NSCLC; 0.318 µM in the experiment on M14 melanoma; 0.268 µM in the experiment on SF-268 CNS; 0.355 µM with OVCAR-3 ovarian. For the same compound, the GI50 with SN12C renal is 0.351 µM; in the experiment on NCI-H460 lung, 0.327 µM; in the experiment with NCI-H226 lung it was 0.267 µM; in the experiment with SK-MEL-5 melanoma, 0.219 µM. Moreover, the TGI in the experiment on EKVX NSCLC was 2.02 µM; with T-47D breast it was above 100 µM; in the experiment on HOP-92 NSCLC it was 2.27 µM; in the experiment on M14 melanoma, 4.31 µM; with SF-268 CNS, 2.41 µM; with OVCAR-3 ovarian it was above 24.1 µM. The TGI was above 100 µM in the experiment on SN12C renal, 15.7 µM in the experiment with NCI-H460 lung, 0.934 µM in the experiment on NCI-H226 lung and 0.498 µM in the experiment with SK-MEL-5 melanoma.

With `Cc1c(-c2c(-c3ccc(F)o3)sc3ncnc(O[C@H](Cc4ccccc4OCc4ccnn4CC(F)(F)F)C(=O)O)c23)ccc(OCCN2CCN(C)CC2)c1Cl`, the GI50 was 4.12 µM with EKVX NSCLC; 5.14 µM with T-47D breast; 4.57 µM in the experiment on HOP-92 NSCLC; 1.32 µM in the experiment on M14 melanoma; 4.46 µM in the experiment with SF-268 CNS; 3.82 µM in the experiment with OVCAR-3 ovarian. Moreover, the GI50 in the experiment with SN12C renal is 4.05 µM; in the experiment on NCI-H460 lung it was 4.17 µM; in the experiment with NCI-H226 lung, 5.89 µM; in the experiment with SK-MEL-5 melanoma it was 3.13 µM. In addition, the concentration for total growth inhibition (TGI) with EKVX NSCLC was 14.2 µM; in the experiment on T-47D breast, 16.3 µM; with HOP-92 NSCLC, 9.7 µM; in the experiment with M14 melanoma it was 5.83 µM; in the experiment on SF-268 CNS it was 11.4 µM; in the experiment with OVCAR-3 ovarian, 7.67 µM. Besides, the TGI came out at 9.62 µM in the experiment with SN12C renal, 10 µM with NCI-H460 lung, 15.5 µM in the experiment with NCI-H226 lung and 6.25 µM with SK-MEL-5 melanoma.

For `O=C(CNc1ccc2c(c1)C(=O)c1ccccc1C2=O)Nc1ccc2c(c1)C(=O)c1ccccc1C2=O`, the GI50 with EKVX NSCLC is 1.88 µM; in the experiment on T-47D breast it was 0.604 µM; in the experiment on HOP-92 NSCLC, 1.39 µM; in the experiment with M14 melanoma, 0.712 µM; in the experiment on SF-268 CNS, 0.575 µM; in the experiment with OVCAR-3 ovarian, 0.71 µM. Also, the GI50 in the experiment with SN12C renal was 0.293 µM; in the experiment with NCI-H460 lung, 1.28 µM; with NCI-H226 lung, 0.568 µM; with SK-MEL-5 melanoma it was 0.25 µM. The TGI came out at 4.02 µM in the experiment with EKVX NSCLC; 2.32 µM with T-47D breast; 2.98 µM with HOP-92 NSCLC; 2.04 µM in the experiment on M14 melanoma; 1.71 µM in the experiment with SF-268 CNS; 1.83 µM in the experiment with OVCAR-3 ovarian. Moreover, the TGI was 1 µM in the experiment with SN12C renal, 2.88 µM in the experiment with NCI-H460 lung, 1.44 µM in the experiment with NCI-H226 lung and 0.669 µM in the experiment on SK-MEL-5 melanoma.

Regarding `O=C(Nc1cc(Cl)cc(Cl)c1)c1ccc(NC2=C(Cl)C(=O)N(Cc3ccc(Cl)cc3Cl)C2=O)cc1`, the GI50 in the experiment with EKVX NSCLC was 21.2 µM; in the experiment with T-47D breast, 3.12 µM; with HOP-92 NSCLC, 9.32 µM; with M14 melanoma, 10.1 µM; in the experiment with SF-268 CNS, 8.87 µM; in the experiment with OVCAR-3 ovarian it was 26.8 µM. Moreover, the GI50 with SN12C renal is 24.9 µM; with NCI-H460 lung, 16.6 µM; in the experiment with NCI-H226 lung it was 14.4 µM; in the experiment on SK-MEL-5 melanoma it was 1.16 µM. The TGI in the experiment on EKVX NSCLC was 71.4 µM; with T-47D breast it was 73.9 µM; in the experiment on HOP-92 NSCLC, 27.5 µM; in the experiment on M14 melanoma it was 61.7 µM; with SF-268 CNS, 39.4 µM; in the experiment on OVCAR-3 ovarian, 70.2 µM. For the same compound, the TGI with SN12C renal was 60.6 µM; in the experiment with NCI-H460 lung, above 100 µM; in the experiment on NCI-H226 lung it was 35 µM; in the experiment with SK-MEL-5 melanoma, 2.65 µM.

Usually GI50 stands for the concentration that inhibits growth by half. A word on the TGI: it is the concentration giving total growth inhibition. Read a high TGI as less potent growth arrest.
